Source: US20060003016A1, “Therapeutic method for endolymphatic hydrops associated diseases” (priority 2004, published 2006)
Where a name gives a salt, the structure may show the parent alone.

How the values were obtained:
[1] = system: guinea pig; settings: after administration of AVP; cited from earlier work
[2] = system: rats; settings: arginine-vasopressin induced rats; cited from earlier work
[3] = system: patients with Meniere's disease and endolymphatic hydrops associated diseases; test: Clinical course of vertigo, aural fullness, tinnitus and hearing in clinical cases; format: in vivo, patient
Excerpt: Therapeutic method of our invention is always performed after general examinations and standard laboratory examinations, such as blood pressure, plasma electrolytes, and urine osmolality. After consideration of body weight, age, sex, and life style, we directed the patients to take adequate water (see below) every day in combination with short-term application with isosorbite®. During the initial stage of the water intake method, recommended volume of water intake for adult male, weighing 60 kg, is calculated as 1.8-2.1 l per day according to the following formula (F 1). […] They seem to be nervous and live under the very strong psychological pressure.
The present invention is explained in detail by mentioning clinical cases.

[4] = case 3, isosorbide 63 g t.d.s. and difenidol hydrochloride 75 mg t.d.s. together for 6 days, July 28, 2000
[5] = case 3, isosorbide 63 g t.d.s. and difenidol hydrochloride 75 mg t.d.s. together for 14 days, March 2000

NC(=O)CC[C@@H]1NC(=O)[C@H](Cc2ccccc2)NC(=O)[C@H](Cc2ccc(O)cc2)NC(=O)[C@@H](N)CSSC[C@@H](C(=O)N2CCC[C@H]2C(=O)N[C@@H](CCCN=C(N)N)C(=O)NCC(N)=O)NC(=O)[C@H](CC(N)=O)NC1=O [AVP, arginine vasopressin]
endolymphatic hydrops [1]: endolymphatic hydrops was produced | ABR (auditory brainstem evoked response) threshold [2]: increase in ABR (auditory brainstem evoked response) threshold

CCCCC[C@H](O)/C=C/[C@H]1[C@H](O)CC(=O)[C@@H]1CCCCCCC(=O)O [PGE1, reference compound]
low frequency sensorineural hearing loss of the left ear ([3]; case 5, steroid, VB12 and vasodilator (prostaglandin:PGE1) together): no improvement

OC(CCCN1CCCCC1)(c1ccccc1)c1ccccc1 [difenidol hydrochloride, reference compound]
left hearing [3, 4]: improved to normal range | left hearing [3, 5]: improved

O[C@@H]1CO[C@H]2[C@@H]1OC[C@@H]2O [isosorbide, reference compound]
time until rotatory vertigo was improved ([3]; case 1, attack of Jan. 24, 2003, isosorbide 63 g t.d.s. with water intake 2 lit./day continued): ≤ 3 h | right ear hearing ([3]; case 1, isosorbide 63 g t.d.s. for one week, reexamination Dec. 6, 2002): improved to the normal level | left hearing [3, 4]: improved to normal range | left hearing [3, 5]: improved | right hearing ([3]; case 4, isosorbide 63 g t.d.s. orally for 2 weeks): no improvement
